# Experimental data published in PubChem BioAssay (NCI).
# Values joined by “and” are separate entries in the source; they are usually repeats but may differ in a detail not shown here. Identical values can stand only once.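 Following 48 hours of exposure in 96-well plates, responses at five concentrations were used to interpolate endpoints linearly. Here, GI50 denotes the concentration required for 50% inhibition of growth. The concentration for full growth arrest is given as TGI.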
# Experiments:
# Experiment in all cases: NCI tumour cell line growth inhibition, 48 h
# [1] = test system: EKVX NSCLC
# [2] = test system: A549 NSCLC
# [3] = test system: OVCAR-5 ovarian
# [4] = test system: K-562 leukemia
# [5] = test system: SF-268 CNS
# [6] = test system: SK-MEL-2 melanoma
# [7] = test system: A498 renal
# [8] = test system: HOP-92 NSCLC
# [9] = test system: UO-31 renal
# [10] = test system: CAKI-1 renal
SMILES,GI50 [1] [µM],TGI [1] [µM],GI50 [2] [µM],TGI [2] [µM],GI50 [3] [µM],TGI [3] [µM],GI50 [4] [µM],TGI [4] [µM],GI50 [5] [µM],TGI [5] [µM],GI50 [6] [µM],TGI [6] [µM],GI50 [7],TGI [7] [µM],GI50 [8] [µM],TGI [8] [µM],GI50 [9],TGI [9] [µM],GI50 [10] [µM],TGI [10] [µM]
CCSc1ccc(C2C(Br)C(=O)N2c2cc(OC)c(OC)c(OC)c2)cc1 (stereo unspecified),0.639,> 100,0.598,> 100,0.431,15.8,0.0545,> 100,1.18,52.7,0.484,> 100,0.103 µM,0.74,0.443,14.1,0.342 µM,15.5,,
COc1cc(NC(=O)C2=C(N3CCOCC3)/C(=C/c3ccc(Cl)cc3)CC2)cc(OC)c1OC,24.9,> 100,55.9,> 100,> 100,> 100,> 100,> 100,20,> 100,66.8,> 100,4.97 µM,27.7,,,20.8 µM,> 100,23,> 100
O=C(/C=C\c1ccccc1)N1CCc2ccccc2C1,,> 100,,,,,,45.8,,> 100,,91.3,,> 100,,> 100,,> 100,,> 100
CCN(Cc1c(Cl)cccc1Cl)c1ccc(CO)c(Cl)c1,,,3.35,20.6,< 0.0284,0.24,0.439,10.6,15,28.8,0.795,13.4,< 0.02 µM,0.0465,0.606,9.64,12.6 µM,26.2,4.23,21.9
Cc1c(Cl)cccc1NC(=O)c1sc2nc3c(cc2c1N)CCCCC3,0.316,> 50,0.725,> 50,1.33,> 50,0.166,> 50,0.426,> 50,0.255,25.2,0.331 µM,19.3,0.266,19.2,1.65 µM,> 50,,
O=C1OCC2=C1C(c1ccccc1)c1cc3c(cc1N2CCO)OCCO3 (stereo unspecified),0.962,> 50,0.62,> 40.1,2.12,> 50,0.191,> 50,0.617,> 35.3,0.156,0.432,0.188 µM,4.05,,,0.3 µM,> 35.3,0.293,> 30.3
Cc1cccc2c(O)cc(=O)oc12,,> 100,,> 100,,> 100,,> 100,,> 100,,,,> 100,,,,> 100,,
CCC[CH2][Sn]1([CH2]CCC)[O]CC(C)[O]1 (stereo unspecified),1.83,4,9.72,21.8,2.03,7.45,0.367,1.97,,,0.54,1.83,2.6 µM,4.68,1.16,2.52,1.54 µM,3.1,0.24,1.23
O=C1C(Cl)=C(Nc2cccc(C(F)(F)F)c2)C(=O)N1Cc1ccc(Cl)cc1,,,1.13,16.9,2.2,23.5,1.33,> 100,0.312,14.8,4.02,> 25.9,0.73 µM,15.7,15,33.1,1.11 µM,33.8,0.289,16.4
O=C(CCCCC(=O)N/N=C\c1ccccc1O)N/N=C\c1ccccc1O,7.75,> 100,,,> 100,> 100,3.92,> 100,1.72,> 100,6.66,> 100,> 100 µM,> 100,11.3,> 100,,,,
C[C@@H](Nc1nc(Nc2ccc(F)c(Cl)c2)nc2ccccc12)C1CC1,2.72,12.4,5.64,19.6,3.73,16,2.82,9.75,6.43,26.8,5.88,24.9,,,1.6,5.79,2.62 µM,14,3.18,15.7
CN(C)CC/C(=N\Nc1ccc(Cl)cc1Cl)c1ccccc1,,43.1,,29.6,,30.7,,33.4,,,,28.6,,30.1,,,,10.5,,
CC#Cc1nc(Nc2cc(C)[nH]n2)c2ccccc2n1,,,5.16,26.8,5.69,30.7,11.7,> 100,4.66,20.5,2.92,8.38,3.93 µM and 1.08 µM,2.75,3.55,21.1,7.6 µM and 2.42 µM,14.5,2.32,13.8
CC1=NN(c2nc(N)nc(/C=C\c3ccc([N+](=O)[O-])s3)n2)C(C)(C)C1,> 100,> 100,> 100,> 100,> 100,> 100,40.9,> 100,> 100,> 100,> 100,> 100,,,> 100,> 100,> 100 µM,> 100,> 100,> 100
Brc1cc2c(cc1Br)CN(c1ccccc1)C2,,> 100,,> 100,,> 100,,> 100,,> 100,,> 100,,> 100,,> 100,,> 100,,
N.N.O=P([O-])([O-])C1(P(=O)([O-])[O-])CCCCCN1.[Pt+2],,,> 100,> 100,,,> 100,> 100,76.6,> 100,> 100,> 100,> 100 µM,> 100,> 100,> 100,> 100 µM,> 100,> 100,> 100
